Reference: patent publication US6737383B1, “Herbicidal oxadiazolidines” (priority 1999, dated 2004)

Tests used:
bedstraw = assay: Test B pre/postemergence bedstraw; format: in vivo, Galium aparine
Outline: (§1)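 Test chemicals in a non-phytotoxic solvent mixture with surfactant were sprayed preemergence onto planted seeds and postemergence onto plants 2 to 18 cm tall (1- to 4-leaf stage). After twelve to sixteen days in a greenhouse, injury was visually rated against untreated controls from 0 (no effect) to 10 (complete control).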

blackgrass = assay: Test B pre/postemergence blackgrass; format: in vivo, Alopecurus myosuroides
Outline: as §1

surinam grass = assay: Test B pre/postemergence surinam grass; format: in vivo, Brachiaria decumbens
Outline: as §1

corn = assay: Test B pre/postemergence corn; format: in vivo, Zea mays
Outline: as §1

crabgrass = assay: Test B pre/postemergence crabgrass; format: in vivo, Digitaria sanguinalis
Outline: as §1

pigweed = assay: Test B pre/postemergence pigweed; format: in vivo, Amaranthus retroflexus
Outline: as §1

rape = assay: Test B pre/postemergence rape; format: in vivo, Brassica napus
Outline: as §1

soybean = assay: Test B pre/postemergence soybean; format: in vivo, Glycine max
Outline: as §1

sugar beet = assay: Test B pre/postemergence sugar beet; format: in vivo, Beta vulgaris; conditions: for Plant response rating, Sugarbeets: Rate 250 g/ha
Outline: as §1

velvetleaf = assay: Test B pre/postemergence velvetleaf; format: in vivo, Abutilon theophrasti; conditions: for Plant response rating, Velvetleaf: Rate 250 g/ha
Outline: as §1

wheat = assay: Test B pre/postemergence wheat; format: in vivo, Triticum aestivum; conditions: for Plant response rating, Wheat: Rate 250 g/ha
Outline: as §1

wild oat = assay: Test B pre/postemergence wild oat; format: in vivo, Avena fatua; conditions: for Plant response rating, Wild oats: Rate 250 g/ha
Outline: as §1

purple nutsedge = assay: Test B pre/postemergence purple nutsedge; format: in vivo, Cyperus rotundus
Outline: as §1

rice = assay: Test B flood test rice; format: in vivo, Oryza sativa
Outline: (§2)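 Read-out is a visual response score from 0 (no effect) to 10 (complete control), assigned by comparison with untreated controls. Treatment was applied at the 2-leaf stage, and plants stayed in the greenhouse for twelve to sixteen days before scoring.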

smallflower flatsedge = assay: Test B flood test smallflower flatsedge; format: in vivo, Cyperus difformis
Outline: as §2

duck salad = assay: Test B flood test duck salad; format: in vivo, Heteranthera limosa
Outline: as §2

[1] = Postemergence, Rate 62 g/ha, scale 0 to 10, 0 is no effect, 10 is complete control
[2] = Postemergence, Rate 250 g/ha, scale 0 to 10, 0 no effect, 10 complete control
[3] = Preemergence, Rate 62 g/ha, scale 0 to 10 (0 no effect, 10 complete control)
[4] = Preemergence, Rate 125 g/ha, scale 0 to 10 (0 no effect, 10 complete control)
[5] = Preemergence, Rate 250 g/ha, scale of 0 to 10 where 0 is no effect and 10 is complete control
[6] = Preemergence, Rate 500 g/ha, scale 0 (no effect) to 10 (complete control)
[7] = Rate 125 g/ha, Postemergence, scale 0 to 10, 0 no effect, 10 complete control
[8] = Rate 500 g/ha, Postemergence, scale 0 to 10, 0 no effect, 10 complete control
[9] = Postemergence, Rate 125 g/ha, scale of 0 to 10 where 0 is no effect and 10 is complete control
[10] = Rate 250 g/ha, Postemergence, scale 0 to 10, 0 is no effect, 10 is complete control
[11] = Preemergence, Rate 125 g/ha, 0 is no effect, 10 is complete control
[12] = Preemergence, scale of 0 to 10 where 0 is no effect and 10 is complete control
[13] = Postemergence, scale 0 to 10, 0 is no effect, 10 is complete control
[14] = Postemergence (flood test species), Rate 125 g/ha, scale of 0 to 10 where 0 is no effect and 10 is complete control
[15] = Rate 250 g/ha, Postemergence (flood test), scale 0 to 10, 0 is no effect, 10 is complete control
[16] = Rate 500 g/ha, listed under Postemergence (flood test species), scale 0 to 10, 0 no effect, 10 complete control

Cc1nn(C)c(Cl)c1-n1c(=O)on(C(=O)N(c2ccc(F)cc2)C(C)C)c1=O [Compound 95]
6: Blackgrass plant response rating (blackgrass; [6]) | Crabgrass plant response rating (crabgrass; [2]) | Plant response rating, Crabgrass (crabgrass; [4]) | Plant response rating, Redroot pigweed (pigweed; [4])
8: Plant response rating, Crabgrass (crabgrass; [5]) | Crabgrass plant response rating (crabgrass; [6]) | Crabgrass plant response rating (crabgrass; [8])
9: Plant response rating, Redroot pigweed (pigweed; [5]) | Redroot pigweed plant response rating (pigweed; [6])
1: Soybean plant response rating (soybean; [1]) | Soybean plant response rating (soybean; [9]) | Plant response rating, Soybean (soybean; [10]) | Soybean plant response rating (soybean; [8]) | Sugarbeets plant response rating (0 to 10 scale) (sugar beet; [11])
3: B. signalgrass plant response rating (surinam grass; [2]) | Plant response rating, B. signalgrass (surinam grass; [5]) | Redroot pigweed plant response rating (pigweed; [9]) | Plant response rating, Redroot pigweed (pigweed; [10]) | Plant response rating, Rape (rape; [5]) | Rape plant response rating (rape; [6]) | Sugarbeets plant response rating (sugar beet; [6]) | Wild oats plant response rating (wild oat; [8])
5: Blackgrass plant response rating (blackgrass; [8]) | B. signalgrass plant response rating (surinam grass; Rate 500 g/ha, Postemergence, scale of 0 to 10 where 0 is no effect and 10 is complete control) | Redroot pigweed plant response rating (pigweed; [3]) | Redroot pigweed plant response rating (pigweed; [8]) | Wild oats plant response rating (wild oat; [6]) | S. Flatsedge plant response rating (smallflower flatsedge; [16])
7: B. signalgrass plant response rating (surinam grass; [6])
2: Bedstraw plant response rating (bedstraw; [8]) | Plant response rating, Blackgrass (blackgrass; [4]) | Crabgrass plant response rating (crabgrass; [3]) | Redroot pigweed plant response rating (pigweed; [1]) | Sugarbeets plant response rating (sugar beet; [1]) | Sugarbeets plant response rating (sugar beet; [9]) | Plant response rating, Sugarbeets (sugar beet; [12]) | Plant response rating, Wild oats (wild oat; [12]) | Plant response rating, Rice (rice; [15])
0: Bedstraw plant response rating (bedstraw; [1]) | Bedstraw plant response rating (bedstraw; [2]) | Bedstraw plant response rating (bedstraw; [3]) | Plant response rating, Bedstraw (bedstraw; [4]) | Plant response rating, Bedstraw (bedstraw; [5]) | Bedstraw plant response rating (bedstraw; [6]) | Bedstraw plant response rating (bedstraw; [7]) | Blackgrass plant response rating (blackgrass; [1]) | Blackgrass plant response rating (blackgrass; [9]) | Blackgrass plant response rating (blackgrass; [3]) | B. signalgrass plant response rating (surinam grass; [1]) | B. signalgrass plant response rating (surinam grass; [3]) | Plant response rating, B. signalgrass (surinam grass; [4]) | B. signalgrass plant response rating (surinam grass; [7]) | Corn plant response rating (corn; [1]) | Corn plant response rating (corn; [9]) | Corn plant response rating (corn; [2]) | Corn plant response rating (corn; [3]) | Plant response rating, Corn (corn; [4]) | Plant response rating, Corn (corn; [5]) | Corn plant response rating (corn; [6]) | Corn plant response rating (corn; [8]) | Crabgrass plant response rating (crabgrass; [1]) | Crabgrass plant response rating (crabgrass; [9]) | Rape plant response rating (rape; [1]) | Rape plant response rating (rape; [9]) | Rape plant response rating (rape; [2]) | Rape plant response rating (rape; [3]) | Plant response rating, Rape (rape; [4]) | Rape plant response rating (rape; [8]) | Soybean plant response rating (soybean; [3]) | Plant response rating, Soybean (soybean; [4]) | Plant response rating, Soybean (soybean; [5]) | Soybean plant response rating (soybean; [6]) | Sugarbeets plant response rating (sugar beet; [3]) | Velvetleaf plant response rating (velvetleaf; [1]) | Velvetleaf plant response rating (velvetleaf; [9]) | Velvetleaf plant response rating (velvetleaf; [3]) | Velvetleaf plant response rating (0 to 10 scale) (velvetleaf; [11]) | Plant response rating, Velvetleaf (velvetleaf; [12]) | Velvetleaf plant response rating (velvetleaf; [6]) | Plant response rating, Velvetleaf (velvetleaf; [13]) | Velvetleaf plant response rating (velvetleaf; [8]) | Wheat plant response rating (wheat; [1]) | Wheat plant response rating (wheat; [9]) | Wheat plant response rating (wheat; [3]) | Wheat plant response rating (0 to 10 scale) (wheat; [11]) | Plant response rating, Wheat (wheat; [12]) | Wheat plant response rating (wheat; [6]) | Plant response rating, Wheat (wheat; [13]) | Wheat plant response rating (wheat; [8]) | Wild oats plant response rating (wild oat; [1]) | Wild oats plant response rating (wild oat; [9]) | Wild oats plant response rating (wild oat; [3]) | Wild oats plant response rating (0 to 10 scale) (wild oat; [11]) | Plant response rating, Wild oats (wild oat; [13]) | Nutsedge plant response rating (purple nutsedge; [1]) | Nutsedge plant response rating (purple nutsedge; [9]) | Nutsedge plant response rating (purple nutsedge; [2]) | Nutsedge plant response rating (purple nutsedge; [3]) | Plant response rating, Nutsedge (purple nutsedge; [4]) | Plant response rating, Nutsedge (purple nutsedge; [5]) | Nutsedge plant response rating (purple nutsedge; [6]) | Nutsedge plant response rating (purple nutsedge; [8]) | Rice plant response rating (rice; [14]) | Rice plant response rating (rice; [1]) | S. Flatsedge plant response rating (smallflower flatsedge; [14]) | S. Flatsedge plant response rating (smallflower flatsedge; [1]) | Plant response rating, S. Flatsedge (smallflower flatsedge; [15]) | Ducksalad plant response rating (duck salad; [14]) | Ducksalad plant response rating (duck salad; [1]) | Ducksalad plant response rating (duck salad; [16]) | Ducksalad plant response rating (duck salad; flood test, listed under Postemergence, Rate 250 g/ha, scale 0 to 10, 0 no effect, 10 complete control)
4: Blackgrass plant response rating (blackgrass; [2]) | Plant response rating, Blackgrass (blackgrass; [5]) | Plant response rating, Sugarbeets (sugar beet; [13]) | Sugarbeets plant response rating (sugar beet; [8]) | Rice plant response rating (rice; [16])
